Experiments:
[1] = test system: male rats (Sprague Dawley Crl:SD); experiment: In vivo MRI imaging of 1, predominantly T1-weighted RARE fast-spin-echo scans; parameters: species or system rat; details: 0.02 mmol/kg iv; for MRI signal intensity, bladder: baseline (−10 min) 414.3; for MRI signal intensity, skeletal muscle: baseline (−10 min) 432.1; for MRI signal intensity, renal pelvis: baseline (−10 min) 465.7; for MRI signal intensity, renal medulla: baseline (−10 min) 480.8; for MRI signal intensity, liver: baseline (−10 min) 498.6; for MRI signal intensity, renal cortex: baseline (−10 min) 579.1
Experimental: Compound 1 (aq., 12.5 mM) was injected intravenously into 2 male rats (Sprague Dawley Crl:SD, 312-338 g) at a dosage of 0.02 mmol/kg following anaesthesia with 5% isoflurane. Compound 2 (aq., 6.25 mM) was injected intravenously into 1 male rat (Sprague Dawley Crl:SD, 349 g) at a dosage of 0.01 mmol/kg following anaesthesia with 5% isoflurane. Compound 6 (aq., 6.25 mM) was injected intravenously into 1 male rat (Sprague Dawley Crl:SD, 341 g) at a dosage of 0.01 mmol/kg following anaesthesia with 5% isoflurane. Anesthesia was maintained at 2-2.5% isoflurane through a nose cone for the duration of the scans. Fast-spin-echo images were collected for 45 mins. immediately post-injection. For compound 1, the DT1-weighted RARE (Rapid Acquisition Relaxation Enhancement) scans were acquired with an echo time of 10 ms, and a repetition time=respiratory cycle duration (˜1100 ms). Both T1- and T2-weighted scans were collected on compounds 2 and 6.
The in vivo contrast potential of compounds 1, 2 and 6 were studied via the collection of fast-spin-echo images for 30-45 minutes immediately following injection of an aqueous solution of each complex. The dosage chosen for 1 was 0.02 mmol/kg (c=[…]) while the dosage chosen for 2 and 6 was 0.01 mmol/kg (c=6.25 mM). Predominantly T1-weighted scans with some T2-weighting were performed on two rats injected with 1.

male Sprague-Dawley rats = experiment: In vivo acute toxicity; parameters: species or system rat
Experimental: Compound 1 (aq., 12.5 mM) was injected intravenously into 4 male rats (Sprague Dawley Crl:SD, 315-340 g) at a dosage of 0.02 mmol/kg following anaesthesia with 5% isoflurane. […] Body weight measurements and hematology were performed on days −1, 7 and 14. Compound 6 (aq., 6.25 mM) was injected intravenously into 8 male rats (Sprague Dawley Crl:SD, 327-365 g) at a dosage of 0.01 mmol/kg following anaesthesia with 5% isoflurane. […] Body weight measurements and hematology were performed on days −1, 1 and 8. Following euthanasia, the heart, lungs, liver, kidneys, spleen, thyroid and pituitary glands were grossly examined during necropsy, and samples of the brain, heart (compound 1 only), lungs, liver, kidneys, spleen and thymus (compound 1 only) were microscopically evaluated during histopathological examination.
The acute toxicities of 1 and 6 were studied in 8 week old male Sprague-Dawley rats. The toxicity of 1 was studied over a period of 14 days, in four rats; while the toxicity of 6 was studied over a period of 8 days, in 8 rats. Compound 1 was injected intravenously at a dosage of 0.02 mmol/kg (c=12.5 mM), while 6 was injected at a dosage of 0.01 mmol/kg (c=6.25 mM). These dosages were chosen because the dosage for the only Mn^II-based compound approved in North America, Teslascan, was 0.005 mmol/kg; and the inventors were anticipating a […] degree of toxicity.

[2] = percentage of the initial intensity, first 45 min

SMILES: CC1=NCCNCCNCCN=C(C)c2cccc1n2.O.O.[Cl-].[Cl-].[Mn+2] [Compound 1, [MnL1Cl2].2H2O]
- excretion (summary) [1]: rapid excretion
- time to appearance in the bladder [1]: ≤ 5 min
- MRI signal intensity, bladder ([1]; 2 min after injection): 454.3 arbitrary units of voxel intensity
- MRI signal intensity, skeletal muscle ([1]; 2 min after injection): 358.5 arbitrary units of voxel intensity
- MRI signal intensity, renal pelvis ([1]; 2 min after injection): 881.1 arbitrary units of voxel intensity
- MRI signal intensity, renal medulla ([1]; 2 min after injection): 608.9 arbitrary units of voxel intensity
- MRI signal intensity, liver ([1]; 2 min after injection): 458.8 arbitrary units of voxel intensity
- MRI signal intensity, renal cortex ([1]; 2 min after injection): 635.2 arbitrary units of voxel intensity
- MRI signal intensity, bladder ([1]; 10 min after injection): 1093.1 arbitrary units of voxel intensity
- MRI signal intensity, skeletal muscle ([1]; 10 min after injection): 354.3 arbitrary units of voxel intensity
- MRI signal intensity, renal pelvis ([1]; 10 min after injection): 920.7 arbitrary units of voxel intensity
- MRI signal intensity, renal medulla ([1]; 10 min after injection): 561.8 arbitrary units of voxel intensity
- MRI signal intensity, liver ([1]; 10 min after injection): 436.2 arbitrary units of voxel intensity
- MRI signal intensity, renal cortex ([1]; 10 min after injection): 683.4 arbitrary units of voxel intensity
- MRI signal intensity, bladder ([1]; 15 min after injection): 1147.9 arbitrary units of voxel intensity
- MRI signal intensity, skeletal muscle ([1]; 15 min after injection): 346.5 arbitrary units of voxel intensity
- MRI signal intensity, renal pelvis ([1]; 15 min after injection): 806.3 arbitrary units of voxel intensity
- MRI signal intensity, renal medulla ([1]; 15 min after injection): 524.4 arbitrary units of voxel intensity
- MRI signal intensity, liver ([1]; 15 min after injection): 410.2 arbitrary units of voxel intensity
- MRI signal intensity, renal cortex ([1]; 15 min after injection): 660.3 arbitrary units of voxel intensity
- MRI signal intensity, bladder ([1]; 20 min after injection): 1046.4 arbitrary units of voxel intensity
- MRI signal intensity, skeletal muscle ([1]; 20 min after injection): 337.5 arbitrary units of voxel intensity
- MRI signal intensity, renal pelvis ([1]; 20 min after injection): 733.9 arbitrary units of voxel intensity
- MRI signal intensity, renal medulla ([1]; 20 min after injection): 502.9 arbitrary units of voxel intensity
- MRI signal intensity, liver ([1]; 20 min after injection): 424.5 arbitrary units of voxel intensity
- MRI signal intensity, renal cortex ([1]; 20 min after injection): 717.0 arbitrary units of voxel intensity
- MRI signal intensity, bladder ([1]; 30 min after injection): 970.1 arbitrary units of voxel intensity
- MRI signal intensity, skeletal muscle ([1]; 30 min after injection): 330.6 arbitrary units of voxel intensity
- MRI signal intensity, renal pelvis ([1]; 30 min after injection): 704.7 arbitrary units of voxel intensity
- MRI signal intensity, renal medulla ([1]; 30 min after injection): 512.6 arbitrary units of voxel intensity
- MRI signal intensity, liver ([1]; 30 min after injection): 398.0 arbitrary units of voxel intensity
- MRI signal intensity, renal cortex ([1]; 30 min after injection): 775.4 arbitrary units of voxel intensity
- MRI signal intensity, bladder ([1]; 45 min after injection): 1030.1 arbitrary units of voxel intensity
- MRI signal intensity, skeletal muscle ([1]; 45 min after injection): 351.0 arbitrary units of voxel intensity
- MRI signal intensity, renal pelvis ([1]; 45 min after injection): 666.1 arbitrary units of voxel intensity
- MRI signal intensity, renal medulla ([1]; 45 min after injection): 520.6 arbitrary units of voxel intensity
- MRI signal intensity, liver ([1]; 45 min after injection): 369.8 arbitrary units of voxel intensity
- MRI signal intensity, renal cortex ([1]; 45 min after injection): 804.1 arbitrary units of voxel intensity
- liver signal ([1]; first 45 minutes): gradual liver hypoenhancement
- renal cortical signal ([1]; first 45 minutes): slow increase in the renal cortical signal
- Max. intensity change, bladder [1, 2]: 177%
- Max. intensity change, liver [1, 2]: −26%
- Max. intensity change, renal cortex [1, 2]: 39%
- Max. intensity change, renal medulla [1, 2]: 27%
- Max. intensity change, renal pelvis [1, 2]: 98%
- Max. intensity change, skeletal muscle [1, 2]: −23%
- retention in tissues or organs ([1]; scans 3 hours post-injection): no evidence of compound 1 being retained by any tissue or organ
- acute toxicity (overall) (male Sprague-Dawley rats; 0.02 mmol/kg iv, 4 rats, 14 days): minimally- to non-acutely toxic
- toxicity (summary of the in vivo studies) (male Sprague-Dawley rats; at the studied dosages): negligible toxicity

Source: patent US10377783B2, “Methods and compounds for enhancing contrast in magnetic resonance imaging (MRI)” (priority 2015, dated 2019)
